According to patent US20170050957A1, “4-AMINO-6-(HETEROCYCLIC)PICOLINATES AND 6-AMINO-2-(HETEROCYCLIC)PYRIMIDINE-4-CARBOXYLATES AND THEIR USE AS HERBICIDES” (Dow AgroSciences LLC, priority 2013, published 2017):

System: Wheat and Barley and test plant species
Experiment: Post-emergent Test III, herbicidal activity in wheat and barley (Table 17; visual injury, GR20/GR50/GR80/GR90)
Type: in vivo
Details: 21 d; for Visual Growth Reduction (%) 21 Days After Application, CIRAR / Visual Growth Reduction (%) 21 Days After Application, GALAP / Visual Growth Reduction (%) 21 Days After Application, HORVS / Visual Growth Reduction (%) 21 Days After Application, KCHSC / Visual Growth Reduction (%) 21 Days After Application, LAMPU / Visual Growth Reduction (%) 21 Days After Application, MATCH / Visual Growth Reduction (%) 21 Days After Application, PAPRH / Visual Growth Reduction (%) 21 Days After Application, SASKR / Visual Growth Reduction (%) 21 Days After Application, SINAR / Visual Growth Reduction (%) 21 Days After Application, TRZAS / Visual Growth Reduction (%) 21 Days After Application, VERPE / Visual Growth Reduction (%) 21 Days After Application, VIOTR: post-emergent
Summary of the method: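 Greenhouse-grown plants at second to third true leaf stage (about 18/17° C day/night, 14 h photoperiod) sprayed post-emergence with compound in acetone/DMSO/water-based mix with Agri-Dex crop oil and X-77 surfactant at 187 L/ha, at highest rate and 1/2× to 1/16× dilutions. Visual injury scored 0–100% versus untreated plants after 21 d; GR20/GR50/GR80/GR90 from probit analysis.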

## COC(=O)c1nc(-c2ccc3cc[nH]c3c2F)cc(N)c1Cl [Compound 1.23, Methyl 4-amino-3-chloro-6-(7-fluoro-1H-indol-6-yl)picolinate]
CIRAR, 17.5 g ai/ha
  Visual Growth Reduction (%) 21 Days After Application, CIRAR: G (0-29)
CIRAR, 35 g ai/ha
  Visual Growth Reduction (%) 21 Days After Application, CIRAR: G (0-29)
CIRAR, 70 g ai/ha
  Visual Growth Reduction (%) 21 Days After Application, CIRAR: G (0-29)
CIRAR, dose for 50 percent growth reduction, probit analysis
  GR50, CIRAR: >140 g ai/ha
CIRAR, dose for 80 percent growth reduction, probit analysis
  GR80, CIRAR: >140 g ai/ha
CIRAR, dose for 90 percent growth reduction, probit analysis
  GR90, CIRAR: >140 g ai/ha
GALAP, 17.5 g ai/ha
  Visual Growth Reduction (%) 21 Days After Application, GALAP: A (95-100)
GALAP, 35 g ai/ha
  Visual Growth Reduction (%) 21 Days After Application, GALAP: A (95-100)
GALAP, 70 g ai/ha
  Visual Growth Reduction (%) 21 Days After Application, GALAP: A (95-100)
GALAP, dose for 50 percent growth reduction, probit analysis
  GR50, GALAP: 1 g ai/ha
GALAP, dose for 80 percent growth reduction, probit analysis
  GR80, GALAP: 4 g ai/ha
GALAP, dose for 90 percent growth reduction, probit analysis
  GR90, GALAP: 7 g ai/ha
HORVS, 17.5 g ai/ha
  Visual Growth Reduction (%) 21 Days After Application, HORVS: G (0-29)
HORVS, 35 g ai/ha
  Visual Growth Reduction (%) 21 Days After Application, HORVS: G (0-29)
HORVS, 70 g ai/ha
  Visual Growth Reduction (%) 21 Days After Application, HORVS: G (0-29)
HORVS, dose for 20 percent growth reduction, probit analysis
  GR20, HORVS: >140 g ai/ha
KCHSC, 17.5 g ai/ha
  Visual Growth Reduction (%) 21 Days After Application, KCHSC: F (30-44)
KCHSC, 35 g ai/ha
  Visual Growth Reduction (%) 21 Days After Application, KCHSC: E (45-59)
KCHSC, 70 g ai/ha
  Visual Growth Reduction (%) 21 Days After Application, KCHSC: D (60-74)
KCHSC, dose for 50 percent growth reduction, probit analysis
  GR50, KCHSC: 35 g ai/ha
KCHSC, dose for 80 percent growth reduction, probit analysis
  GR80, KCHSC: 110 g ai/ha
KCHSC, dose for 90 percent growth reduction, probit analysis
  GR90, KCHSC: >140 g ai/ha
LAMPU, 17.5 g ai/ha
  Visual Growth Reduction (%) 21 Days After Application, LAMPU: B (85-94)
LAMPU, 35 g ai/ha
  Visual Growth Reduction (%) 21 Days After Application, LAMPU: A (95-100)
LAMPU, 70 g ai/ha
  Visual Growth Reduction (%) 21 Days After Application, LAMPU: A (95-100)
LAMPU, dose for 50 percent growth reduction, probit analysis
  GR50, LAMPU: 3 g ai/ha
LAMPU, dose for 80 percent growth reduction, probit analysis
  GR80, LAMPU: 6 g ai/ha
LAMPU, dose for 90 percent growth reduction, probit analysis
  GR90, LAMPU: 9 g ai/ha
17.5 g ai/ha
  Visual Growth Reduction (%) 21 Days After Application, MATCH: G (0-29)
35 g ai/ha
  Visual Growth Reduction (%) 21 Days After Application, MATCH: G (0-29)
70 g ai/ha
  Visual Growth Reduction (%) 21 Days After Application, MATCH: G (0-29)
PAPRH, 17.5 g ai/ha
  Visual Growth Reduction (%) 21 Days After Application, PAPRH: D (60-74)
PAPRH, 35 g ai/ha
  Visual Growth Reduction (%) 21 Days After Application, PAPRH: A (95-100)
PAPRH, 70 g ai/ha
  Visual Growth Reduction (%) 21 Days After Application, PAPRH: A (95-100)
PAPRH, dose for 50 percent growth reduction, probit analysis
  GR50, PAPRH: 11 g ai/ha
PAPRH, dose for 80 percent growth reduction, probit analysis
  GR80, PAPRH: 17 g ai/ha
PAPRH, dose for 90 percent growth reduction, probit analysis
  GR90, PAPRH: 22 g ai/ha
SASKR, 17.5 g ai/ha
  Visual Growth Reduction (%) 21 Days After Application, SASKR: F (30-44)
SASKR, 35 g ai/ha
  Visual Growth Reduction (%) 21 Days After Application, SASKR: E (45-59)
SASKR, 70 g ai/ha
  Visual Growth Reduction (%) 21 Days After Application, SASKR: C (75-84)
SASKR, dose for 50 percent growth reduction, probit analysis
  GR50, SASKR: 29 g ai/ha
SASKR, dose for 80 percent growth reduction, probit analysis
  GR80, SASKR: 90 g ai/ha
SASKR, dose for 90 percent growth reduction, probit analysis
  GR90, SASKR: >140 g ai/ha
SINAR, 17.5 g ai/ha
  Visual Growth Reduction (%) 21 Days After Application, SINAR: C (75-84)
SINAR, 35 g ai/ha
  Visual Growth Reduction (%) 21 Days After Application, SINAR: C (75-84)
SINAR, 70 g ai/ha
  Visual Growth Reduction (%) 21 Days After Application, SINAR: A (95-100)
SINAR, dose for 50 percent growth reduction, probit analysis
  GR50, SINAR: 3 g ai/ha
SINAR, dose for 80 percent growth reduction, probit analysis
  GR80, SINAR: 14 g ai/ha
SINAR, dose for 90 percent growth reduction, probit analysis
  GR90, SINAR: 32 g ai/ha
TRZAS, 17.5 g ai/ha
  Visual Growth Reduction (%) 21 Days After Application, TRZAS: G (0-29)
TRZAS, 35 g ai/ha
  Visual Growth Reduction (%) 21 Days After Application, TRZAS: G (0-29)
TRZAS, 70 g ai/ha
  Visual Growth Reduction (%) 21 Days After Application, TRZAS: G (0-29)
TRZAS, dose for 20 percent growth reduction, probit analysis
  GR20, TRZAS: 66 g ai/ha
VERPE, 17.5 g ai/ha
  Visual Growth Reduction (%) 21 Days After Application, VERPE: B (85-94)
VERPE, 35 g ai/ha
  Visual Growth Reduction (%) 21 Days After Application, VERPE: B (85-94)
VERPE, 70 g ai/ha
  Visual Growth Reduction (%) 21 Days After Application, VERPE: A (95-100)
VERPE, dose for 50 percent growth reduction, probit analysis
  GR50, VERPE: 1 g ai/ha
VERPE, dose for 80 percent growth reduction, probit analysis
  GR80, VERPE: 8 g ai/ha
VERPE, dose for 90 percent growth reduction, probit analysis
  GR90, VERPE: 21 g ai/ha
VIOTR, 17.5 g ai/ha
  Visual Growth Reduction (%) 21 Days After Application, VIOTR: G (0-29)
VIOTR, 35 g ai/ha
  Visual Growth Reduction (%) 21 Days After Application, VIOTR: E (45-59)
VIOTR, 70 g ai/ha
  Visual Growth Reduction (%) 21 Days After Application, VIOTR: D (60-74)
VIOTR, dose for 50 percent growth reduction, probit analysis
  GR50, VIOTR: 44 g ai/ha
VIOTR, dose for 80 percent growth reduction, probit analysis
  GR80, VIOTR: 119 g ai/ha
VIOTR, dose for 90 percent growth reduction, probit analysis
  GR90, VIOTR: >140 g ai/ha
